Measured values from patent US20210301315A1, “METHODS FOR TREATING POLYMICROBIAL INFECTIONS” (priority 2017, published 2021).
“Also recorded” adds a separate entry of the source.

How the values were obtained:
[1] = system: Coagulase-negative Staphylococcus (CoNS) and K. pneumoniae; assay: P-AST species-pair interaction on antibiotic resistance (logistic regression, HSAP/UP); assay type: cell-based, Coagulase negative staphylococci; Klebsiella pneumoniae; conditions: CoNS and K. pneumoniae together v. expected from each species alone (HSAP/UP)
Experimental: (§1) The Pooled Antibiotic Sensitivity Test (P-AST) is permitting the organisms identified to grow in the presence of antibiotics and measuring the minimum concentration of antibiotic to inhibit growth. Antibiotic susceptibility testing is performed when at least a single organism within a pool of organisms reaches a certain threshold, (e.g., at least 3,000 cells/ml, at least 5,000 cells/ml, at least 10,000 cells/ml, etc.) and can grow in the presence of the antibiotic in the assay within the time of testing. (Note: 10,000 cells/ml is equivalent to 10,000 CFU/ml.) The present invention is not limited to a 10,000 cells/mL threshold. These pools of organism(s) are inoculated into growth medium then placed onto an antibiotic laden “spec plate” that is then incubated and analyzed for growth. The breakpoints are derived from the CLSI breakpoints.
(§2) P-AST was performed by aliquoting 1 mL of patient urine specimen into a 1.7 mL microcentrifuge tube. After centrifugation, the supernatant was aspirated and discarded, leaving approximately 100 or 50 μL (minimum volume left above pellet created from centrifugation) of patient sample in the microcentrifuge tube. One mL of Mueller Hinton Growth Media was then aliquoted into the patient sample in the microcentrifuge tube and the tubes were incubated at 35° C. in a non-CO2 incubator for 6 hours. Non-inoculated liquid MH-media is incubated as the negative control to confirm the media used is not contaminated. Those samples that reached a minimum threshold of 10,000 cells/mL were then diluted by aliquoting 0.5 mL of sample into a 50 mL conical tube containing Mueller Hinton Growth Media (in this example, the dilution was 1:60, e.g., 500 μL was added to 29.5 mL). 96-well plates pre-loaded with antibiotics were then inoculated with diluted samples and incubated along with control plates for 12-16 hours at 35° C. in a single layer. Optical density of samples was then read on a DensiCHEK plate reader. The DensiCHEK instrument is used to measure the concentration of turbid samples considered positive because PCR-ID result was >=10,000 cells/mL. The turbid samples were diluted/normalized to the same concentration and then added to a volume of liquid, e.g., 29.5 mL of liquid MH-media. A spectrophotometer (plate reader) is used to measure optical density of the samples in wells of antibiotics and inoculum in order to determine if there is growth in a well. The present invention is not limited to a concentration of 10,000 cells/mL.
Interactions between pairs of bacterial species were investigated using a logistic regression model to predict resistance in the presence of specific bacterial species. […]

[2] = system: E. coli and S. agalactiae; assay: as above; assay type: cell-based, Escherichia coli; Streptococcus agalactiae; conditions: E. coli and S. agalactiae together v. expected from each species alone (HSAP/UP)
Experimental: as §1, §2
(§3) Interactions between pairs of bacterial species were investigated using a logistic regression model to predict resistance in the presence of specific bacterial species. Bacterial species that tested positive in at least 30 samples were considered in the regression model: these 16 species were A. schaalii, A. urinae, A. omnicolens, CoNS, C. riegelii, E. faecalis, E. coli, K. oxytoca, K. pneumoniae, M. morganii, P. mirabilis, P. aeruginosa, S. aureus, S. agalactiae, U. urealyticum, VGS. Backward stepwise model selection was performed on the model with all main effects and all pairwise interactions using an enter significance level of α=0.10 and an exit significance level of α=0.05 to obtain the best fitting model. This model was used to predict resistance rates when a specific organism was present or when a specific pair of organisms were present.
(§4) Using the logistic regression model described above, the resistance rate for a pair of species was compared to the resistance rates for each species alone. […]

[3] = system: E. coli and K. oxytoca; assay: as above; assay type: cell-based, Escherichia coli; Klebsiella oxytoca; conditions: E. coli and K. oxytoca together v. expected from each species alone (HSAP/UP)
Experimental: as §1
(§5) P-AST was performed by aliquoting 1 mL of patient urine specimen into a 1.7 mL microcentrifuge tube. After centrifugation, the supernatant was aspirated and discarded, leaving approximately 100 or 50 μL (minimum volume left above pellet created from centrifugation) of patient sample in the microcentrifuge tube. […] Optical density of samples was then read on a DensiCHEK plate reader. […] A spectrophotometer (plate reader) is used to measure optical density of the samples in wells of antibiotics and inoculum in order to determine if there is growth in a well. […]

[4] = system: E. coli and P. mirabilis; assay: as above; assay type: cell-based, Escherichia coli; Proteus mirabilis; conditions: E. coli and P. mirabilis together v. expected from each species alone (HSAP/UP)
Experimental: as §1, §2, §3, §4

[5] = system: bacteria detected in patient urine specimens; assay: Pooled Antibiotic Susceptibility Testing (P-AST) of urine specimens, polymicrobial v. monomicrobial (logistic regression); assay type: cell-based; conditions: polymicrobial urine specimens
Text: The present invention describes Pooled Antibiotic Susceptibility Testing (P-AST), which involves simultaneously growing all detected bacteria together in the presence of antibiotics and then measuring susceptibility. […] Urine specimens were obtained from patients presenting with UTI-like symptoms to 37 urology clinics. The odds of resistance were estimated for 18 antibiotics relative to increasing numbers of bacterial species in a specimen.
The following study combines data from two studies of antibiotic resistance patterns in elderly patients presenting with symptoms consistent with a UTI. […] All subjects met the following inclusion and exclusion criteria. Inclusion criteria included: symptoms of acute cystitis, complicated UTI, persistent UTI, recurrent UTI, prostatitis, pyelonephritis, interstitial cystitis (at any age), symptoms of other conditions at years of age, specimen volumes sufficient to permit urine culture and Multiplex Polymerase Chain Reaction (M-PCR) combined with Pooled Antibiotic Sensitivity Testing (P-AST), patient informed consented, documented times at which the specimens were collected and stabilized with boric acid in grey-top tubes. Exclusion criteria included prior participation in this study, antibiotics taken for any reason other than UTI at the time of enrollment, chronic (≥10 days) indwelling catheters, self-catheterization, and urinary diversion.
(§6) The Pooled Antibiotic Sensitivity Test (P-AST) is permitting the organisms identified to grow in the presence of antibiotics and measuring the minimum concentration of antibiotic to inhibit growth. Antibiotic susceptibility testing is performed when at least a single organism within a pool of organisms reaches a certain threshold, (e.g., at least 3,000 cells/ml, at least 5,000 cells/ml, at least 10,000 cells/ml, etc.) and can grow in the presence of the antibiotic in the assay within the time of testing. […] These pools of organism(s) are inoculated into growth medium then placed onto an antibiotic laden “spec plate” that is then incubated and analyzed for growth. The breakpoints are derived from the CLSI breakpoints.

[6] = system: E. faecalis and S. agalactiae; assay: P-AST species-pair interaction on antibiotic resistance (logistic regression, HSAP/UP); assay type: cell-based, Enterococcus faecalis; Streptococcus agalactiae; conditions: E. faecalis and S. agalactiae together v. expected from each species alone (HSAP/UP)
Experimental: as §1, §5

[7] = system: Coagulase-negative Staphylococcus (CoNS) and E. faecalis; assay: as above; assay type: cell-based, Coagulase negative staphylococci; Enterococcus faecalis; conditions: CoNS and E. faecalis together v. expected from each species alone (HSAP/UP)
Experimental: as §1, §5

[8] = system: Coagulase-negative Staphylococcus (CoNS) and S. agalactiae; conditions: CoNS and S. agalactiae together v. expected from each species alone (HSAP/UP)
Experimental: as §6
P-AST was performed by aliquoting 1 mL of patient urine specimen into a 1.7 mL microcentrifuge tube. After centrifugation, the supernatant was aspirated and discarded, leaving approximately 100 or 50 μL (minimum volume left above pellet created from centrifugation) of patient sample in the microcentrifuge tube. One mL of Mueller Hinton Growth Media was then aliquoted into the patient sample in the microcentrifuge tube and the tubes were incubated at 35° C. in a non-CO2 incubator for 6 hours. […] Those samples that reached a minimum threshold of 10,000 cells/mL were then diluted by aliquoting 0.5 mL of sample into a 50 mL conical tube containing Mueller Hinton Growth Media (in this example, the dilution was 1:60, e.g., 500 μL was added to 29.5 mL). 96-well plates pre-loaded with antibiotics were then inoculated with diluted samples and incubated along with control plates for 12-16 hours at 35° C. in a single layer. Optical density of samples was then read on a DensiCHEK plate reader. The DensiCHEK instrument is used to measure the concentration of turbid samples considered positive because PCR-ID result was >=10,000 cells/mL. The turbid samples were diluted/normalized to the same concentration and then added to a volume of liquid, e.g., 29.5 mL of liquid MH-media. A spectrophotometer (plate reader) is used to measure optical density of the samples in wells of antibiotics and inoculum in order to determine if there is growth in a well.
Interactions between pairs of bacterial species were investigated using a logistic regression model to predict resistance in the presence of specific bacterial species. Bacterial species that tested positive in at least 30 samples were considered in the regression model: these 16 species were A. schaalii, A. urinae, A. omnicolens, CoNS, C. riegelii, E. faecalis, E. coli, K. oxytoca, K. pneumoniae, M. morganii, P. mirabilis, P. aeruginosa, S. aureus, S. agalactiae, U. urealyticum, VGS. […]

[9] = system: Coagulase-negative Staphylococcus (CoNS) and E. coli; assay: P-AST species-pair interaction on antibiotic resistance (logistic regression, HSAP/UP); assay type: cell-based, Coagulase negative staphylococci; Escherichia coli; conditions: CoNS and E. coli together v. expected from each species alone (HSAP/UP)
Experimental: as §1, §5

[10] = system: E. faecalis and K. pneumoniae; assay: as above; assay type: cell-based, Enterococcus faecalis; Klebsiella pneumoniae; conditions: E. faecalis and K. pneumoniae together v. expected from each species alone (HSAP/UP)
Experimental: as §1, §5

[11] = system: E. faecalis and P. mirabilis; assay: as above; assay type: cell-based, Enterococcus faecalis; Proteus mirabilis; conditions: E. faecalis and P. mirabilis together v. expected from each species alone (HSAP/UP)
Experimental: as §1, §5

[12] = system: E. faecalis and E. coli; assay: as above; assay type: cell-based, Enterococcus faecalis; Escherichia coli; conditions: E. faecalis and E. coli together v. expected from each species alone (HSAP/UP)
Experimental: as §1, §5

[13] = system: E. faecalis and P. aeruginosa; assay: as above; assay type: cell-based, Enterococcus faecalis; Pseudomonas aeruginosa; conditions: E. faecalis and P. aeruginosa together v. expected from each species alone (HSAP/UP)
Experimental: as §1, §5

Compound	change in antibiotic resistance of the pair of organisms [1]	change in antibiotic resistance of the pair of organisms [2]	change in antibiotic resistance of the pair of organisms [4]	odds of resistance for each additional species identified (in words) [5]	change in antibiotic resistance of the pair of organisms [6]	further results
O=C(O)c1cn(C2CC2)c2cc(N3CCNCC3)c(F)cc2c1=O [Ciprofloxacin, ciprofloxacin]	decrease in resistance; also recorded: decreased odds of resistance	decrease in resistance; also recorded: decreased odds of resistance	–	–	–	change in antibiotic resistance of the pair of organisms [3]: decrease in resistance; also recorded: decreased odds of resistance
CO[C@@]1(NC(=O)Cc2cccs2)C(=O)N2C(C(=O)O)=C(COC(N)=O)CS[C@@H]21 [Cefoxitin, cefoxitin]	–	–	decrease in resistance; also recorded: decreased odds of resistance	–	–	–
CC1(C)S[C@@H]2[C@H](NC(=O)[C@H](N)c3ccccc3)C(=O)N2[C@H]1C(=O)O [Ampicillin, ampicillin]	reduced resistance	decrease in resistance; also recorded: decreased odds of resistance	–	increased	decrease in resistance; also recorded: decreased odds of resistance	–
CN[C@H](CC(C)C)C(=O)N[C@H]1C(=O)N[C@@H](CC(N)=O)C(=O)N[C@H]2C(=O)N[C@H]3C(=O)N[C@H](C(=O)N[C@H](C(=O)O)c4cc(O)cc(O)c4-c4cc3ccc4O)[C@H](O)c3ccc(c(Cl)c3)Oc3cc2cc(c3O[C@@H]2O[C@H](CO)[C@@H](O)[C@H](O)[C@H]2O[C@H]2C[C@](C)(N)[C@H](O)[C@H](C)O2)Oc2ccc(cc2Cl)[C@H]1O [Vancomycin, vancomycin]	–	–	–	increased	decrease in resistance; also recorded: decreased odds of resistance	change in antibiotic resistance of the pair of organisms [7]: decrease in resistance; also recorded: decreased odds of resistance; change in antibiotic resistance of the pair of organisms [8]: decrease in resistance; also recorded: decreased odds of resistance
CO/N=C(\C(=O)N[C@@H]1C(=O)N2C(C(=O)O)=C(CSc3nc(=O)c(=O)[nH]n3C)CS[C@H]12)c1csc(N)n1 [Ceftriaxone, ceftriaxone]	decrease in resistance; also recorded: decreased odds of resistance	decrease in resistance; also recorded: decreased odds of resistance	decrease in resistance; also recorded: decreased odds of resistance	–	–	change in antibiotic resistance of the pair of organisms [9]: decrease in resistance; also recorded: decreased probability in resistance; also recorded: decreased odds of resistance
C[C@@H](O)[C@H]1C(=O)N2C(C(=O)O)=C(S[C@@H]3CN[C@H](C(=O)N(C)C)C3)[C@H](C)[C@H]12 [Meropenem, meropenem]	–	–	–	–	–	change in antibiotic resistance of the pair of organisms [10]: decrease in resistance; also recorded: decreased odds of resistance; change in antibiotic resistance of the pair of organisms [11]: decrease in resistance; also recorded: decreased odds of resistance; change in antibiotic resistance of the pair of organisms [12]: decrease in resistance; also recorded: decreased odds of resistance; change in antibiotic resistance of the pair of organisms [13]: decrease in resistance; also recorded: decreased odds of resistance
